Assay results taken from patent US20100247503A1, “METHOD FOR OBTAINING A SOLID COMPOSITION WITH RHODOTORULA MINUTA, WHICH IS EFFECTIVE FOR THE BIOLOGICAL CONTROL OF ANTHRACNOSE, AND RESULTING COMPOSITION” (priority 2006, published 2010).

Columns and labels:
Assay type in all cases: in vivo
[1] = system: Colletotrichum gloeosporioides; assay: Field tests with liquid compositions, pre-harvest application, severity of anthracnose on mango fruit; settings: mango cv. Kent, five monthly pre-harvest sprays, fruit stored 15 days at 20° C., 85% RH, R. minuta 10^8, B. subtilis 10^6, mix 10^6+10^4 UFC/mL, Benomyl 0.5 g/L
From the text: (§1) Application of treatments in the field. To verify field effectiveness we used an eight-year old commercial mango orchard cv. Kent, located in El Rosario, Sinaloa, Mexico. We selected the trees homogeneously to distribute them for each treatment (three trees per treatment). In each treatment there was a monthly application (five in total), using a backpack pump sprinkler operated at 400 pounds of pressure. We started during flowering (February) until the harvest (June or July), spraying suspensions of fresh or dried cells (previously hydrated), produced in semi-industrial fermenters. We sprayed 7 L of cell suspension on each selected mango tree, until all the foliage was wet. As a control treatment, we sprayed 7 L of irrigation water.
(§2) Quantifying the severity of anthracnose. For each treatment, 100 mango fruits were harvested at physiological maturity (Báez et al., 1993), and were stored under simulated marketing conditions at 20° C. and 85% relative humidity. We evaluated the severity of the disease after a minimum of 15 days of storage, using the presence of symptoms as indicator of the disease (anthracnose) in the fruit. […]
(§3) Statistical analysis. The study of the severity of the disease in mango fruits was analyzed using a completely randomized block design. […] The difference between treatments was determined by the Tukey test (p=0.05). […]

[2] = system: Colletotrichum gloeosporioides; assay: Field tests with solid dry compositions, pre-harvest application, severity of anthracnose on mango fruit; settings: mango cv. Kent, mix 10^6+10^4 UFC/mL, Benomyl 0.5 g/L
From the text: as §1, §2, §3

[3] = system: mango fruit (Mangifera indica) cv. Kent; assay: Assessing the quality of the fruit (weight loss, pH, titratable acidity, total soluble solids) during storage; settings: 85% RH
Protocol: Assessing the quality of the fruit. Weight loss was assessed every third day by difference in weight with respect to the initial weight of the fruit, expressed as a percentage (Diaz-Pérez, 1998). The pH, titratable acidity (TA) and total soluble solids (TSS) were quantified according to the methodology proposed by the AOAC (1998) at 0, 6 and 12 days of storage. To determine the pH and acidity we used a Mettler automatic titrator (model DL-21) and the results were expressed in units of pH and percentage of citric acid, respectively. Total soluble solids were determined with a Leica Abbe Mark II type refractometer, temperature-compensated and previously calibrated with pure water. The results were expressed in Brix degrees (°Brix). For quality parameters, a fruit was selected as an experimental unit and five replications were used.
Statistical analysis. The study of the severity of the disease in mango fruits was analyzed using a completely randomized block design. Data from the evaluations of each treatment were subjected to unilateral variance analysis by Friedman ranges (p<0.05) using the SAS statistical system (SAS, 1998). The difference between treatments was determined by the Tukey test (p=0.05). For differences in the analysis of variance (ANOVA) of quality variables, the mediums were separated by Tukey multiple comparison test with a probability of error of 5%, using the Minitab statistical program version 13.1.
The same compositions presented in table 2 were used to study the effect of the application of biological control agents, subject of this invention, on the quality of mango fruit cv. Kent.

SMILES: CCCCNC(=O)n1c(NC(=O)OC)nc2ccccc21 [Benomyl]
- % of severity after 15 days of storage [1]: 41.7 b %
- % of severity after 15 days of storage ([1]; listed as chemical treatment): 41.7%
- % severity [2]: 25.0 b %
- % severity ([2]; listed as chemical treatment): 36.2%
- Weight loss (%) ([3]; day 3 of storage at 20° C.): 0.9 a %
- Weight loss (%) ([3]; day 6 of storage at 20° C.): 1.6 a %
- Weight loss (%) ([3]; day 9 of storage at 20° C.): 2.4 ab %
- Weight loss (%) ([3]; day 12 of storage at 20° C.): 3.4 ab %
- Weight loss (%) ([3]; day 15 of storage at 20° C.): 4.3 a %
- Weight loss (%) ([3]; day 15 of storage at 20° C., listed as chemical treatment): 4.3%
